Measured values reported in US20260193249A1, “PREPARATION OF PYRAZOLOPYRIDINE AND TRIAZOLOPYRIDINE DERIVATIVES AS NOVEL DIACYLGLYCERIDE O-ACYLTRANSFERASE 2 INHIBITORS” (Merck Sharp & Dohme LLC, priority 2022, published 2026).

Target: T1, human DGAT2 (Homo sapiens, UniProt Q96PD7)
T1 construct: made in house; host or cells: Sf-9 insect cells (baculovirus), membrane fraction
T1 sequence (Q96PD7 1-388): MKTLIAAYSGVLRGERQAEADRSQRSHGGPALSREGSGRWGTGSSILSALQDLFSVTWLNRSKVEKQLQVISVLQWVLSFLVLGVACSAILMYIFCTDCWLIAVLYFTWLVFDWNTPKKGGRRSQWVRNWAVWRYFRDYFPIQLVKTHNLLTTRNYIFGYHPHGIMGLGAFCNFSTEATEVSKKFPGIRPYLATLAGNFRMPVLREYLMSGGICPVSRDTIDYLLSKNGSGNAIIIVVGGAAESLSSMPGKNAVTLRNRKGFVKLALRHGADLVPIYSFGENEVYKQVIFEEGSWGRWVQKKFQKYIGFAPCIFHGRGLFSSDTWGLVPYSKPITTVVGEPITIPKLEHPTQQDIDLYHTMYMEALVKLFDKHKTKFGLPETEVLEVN
Test: DGAT2 Enzymatic Activity Assay
Format: biochemical
Conditions: membrane prep of Sf-9 insect cells expressing hDGAT2; 13C18-triolein product by LC/MS/MS; 25 μM diolein, 5 μM 13C oleoyl-CoA
Description: Sf-9 insect cells were maintained in Grace's insect cell culture medium with 10% heated-inactivated fetal bovine serum, 1% Pluronic F-68 and 0.14 μg/ml Kanamycine sulfate at 27° C. in a shaker incubator. After infection with untagged baculovirus expressing human DGAT2 (hDGAT2) at multiplicity of infection (MOI) 3 for 48 hours, cells were harvested. Cell pellets were suspended in buffer containing 10 mM Tris-HCl pH 7.5, 1 mM EDTA, 250 mM sucrose and Complete Protease Inhibitor Cocktail (Sigma Aldrich), and sonicated on ice. Cell debris were removed by centrifugation at 2000×g for 15 minutes. Membrane fractions were isolated by ultracentrifugation (100,000×g), resuspended in the same buffer, and frozen (−80° C.) for later use. The protein concentration was determined with the Pierce™ BCA Protein Assay Kit (Thermo Fisher Scientific).
LC/MS/MS analyses were performed using Thermal Fisher's LX4-TSQ Vantage system. This system consists of an Agilent binary high-performance liquid chromatography (HPLC) pump and a TSQ Vantage triple quadrupole MS/MS instrument. For each sample, 2 μL samples from the top organic layer of in-plate liquid-liquid extraction were injected onto a Thermo Betabasic C4 column (2.1 mm×20 mm, 5 μm particle size). The samples were then eluted using the following conditions; mobile phase: Isopropanol:acetonitrile/10 mM ammonium formate=50/35/15 (v/v/v), flow rate: 0.8 mL/min, temperature: 25° C. Data was acquired in positive mode using a heated electrospray ionization (HESI) interface. […] The peak area was integrated by Xcalibur Quan software. The ratio between the ^13C18triolein generated in the reaction and spiked in internal standard ^13C21-triolein was used to generate percentage inhibition and IC50 values. Compound percentage inhibition was calculated by the following formula: Inhibition %=1−[(compound response−low control)/(high control−low control)]×100%.
DGAT2 activity was determined by measuring the amount of enzymatic product ^13C18-triolein (^13C-1,2,3-Tri(cis-9-octadecenoyl)glycerol) using the membrane prep mentioned above. The assay was carried out in ABgene 384-well assay plates in a final volume of 25 μL at rt.

First: CN1C(C)(C)C(NC(=O)c2cc3cc(Oc4ncccc4OCC(F)(F)F)ccn3n2)CS1(=O)=O (racemic) [Example 2, 5-((3-(2,2,2-Trifluoroethoxy)pyridin-2-yl)oxy)-N-(2,3,3-trimethyl-1,1-dioxidoisothiazolidin-4-yl)pyrazolo[1,5-a]pyridine-2-carboxamide]
Second: CC1(NC(=O)c2cc3cc(Oc4ncccc4OCC(F)(F)F)ccn3n2)CS(=O)(=O)C1 [Example 5, N-(3-Methyl-1,1-dioxidothietan-3-yl)-5-((3-(2,2,2-trifluoroethoxy)pyridin-2-yl)oxy)pyrazolo[1,5-a]pyridine-2-carboxamide]
The IC50 of the first is 5.3-fold higher: 787 nM for the first, 149 nM for the second. The second is the more potent here.

Compared with `CC1(NC(=O)c2cc3cc(Oc4ncc(C(O)C5CC5)cc4OCC(F)(F)F)ccn3n2)CCS(=O)(=O)CC1` (single isomer, unassigned) [Example 43a, 5-((5-(Cyclopropyl(hydroxy)methyl)-3-(2,2,2-trifluoroethoxy)pyridin-2-yl)oxy)-N-(4-methyl-1,1-dioxidotetrahydro-2H-thiopyran-4-yl)pyrazolo[1,5-a]pyridine-2-carboxamide], `CC(O)c1cnc(Oc2ccn3nc(C(=O)NC4(C)CCS(=O)(=O)CC4)cc3c2)c(OCC(F)(F)F)c1` (single isomer, unassigned) [Example 44a, 5-((5-(1-Hydroxyethyl)-3-(2,2,2-trifluoroethoxy)pyridin-2-yl)oxy)-N-(4-methyl-1,1-dioxidotetrahydro-2H-thiopyran-4-yl)pyrazolo[1,5-a]pyridine-2-carboxamide] is 2.1-fold lower in IC50: 228 nM for the first, 111 nM for the second.

Compared with `CC1(NC(=O)c2cc3cc(Oc4ncc(C(O)C5CC5)cc4OCC(F)(F)F)ccn3n2)CCS(=O)(=O)CC1` (single isomer, unassigned) [Example 43b, 5-((5-(Cyclopropyl(hydroxy)methyl)-3-(2,2,2-trifluoroethoxy)pyridin-2-yl)oxy)-N-(4-methyl-1,1-dioxidotetrahydro-2H-thiopyran-4-yl)pyrazolo[1,5-a]pyridine-2-carboxamide], `CC(O)c1cnc(Oc2ccn3nc(C(=O)NC4(C)CCS(=O)(=O)CC4)cc3c2)c(OCC(F)(F)F)c1` (single isomer, unassigned) [Example 44b, 5-((5-(1-Hydroxyethyl)-3-(2,2,2-trifluoroethoxy)pyridin-2-yl)oxy)-N-(4-methyl-1,1-dioxidotetrahydro-2H-thiopyran-4-yl)pyrazolo[1,5-a]pyridine-2-carboxamide] is lower in IC50: over 9990 nM for the first, 332 nM for the second.

Going from `CC1(NC(=O)c2cc3cc(Oc4ncc(C(O)C(F)(F)F)cc4OCC(F)(F)F)ccn3n2)CS(=O)(=O)C1` (single isomer, unassigned) [Example 45a, N-(3-Methyl-1,1-dioxidothietan-3-yl)-5-((5-(2,2,2-trifluoro-1-hydroxyethyl)-3-(2,2,2-trifluoroethoxy)pyridin-2-yl)oxy)pyrazolo[1,5-a]pyridine-2-carboxamide] to `CC1(NC(=O)c2cc3cc(Oc4ncc(F)cc4OCC(F)F)ccn3n2)CS(=O)(=O)C1` [Example 11, 5-((3-(2,2-Difluoroethoxy)-5-fluoropyridin-2-yl)oxy)-N-(3-methyl-1,1-dioxidothietan-3-yl)pyrazolo[1,5-a]pyridine-2-carboxamide], the IC50 falls from over 9990 nM to 2.5 nM.

First: CC1(NC(=O)c2cc3cc(Oc4ncc(C(O)C(F)(F)F)cc4OCC(F)(F)F)ccn3n2)CS(=O)(=O)C1 (single isomer, unassigned) [Example 45b, N-(3-Methyl-1,1-dioxidothietan-3-yl)-5-((5-(2,2,2-trifluoro-1-hydroxyethyl)-3-(2,2,2-trifluoroethoxy)pyridin-2-yl)oxy)pyrazolo[1,5-a]pyridine-2-carboxamide]
Second: CC1(NC(=O)c2cc3cc(Oc4ncccc4OCC(F)(F)F)ccn3n2)CCS(=O)(=O)CC1 [Example 1, N-(4-Methyl-1,1-dioxidotetrahydro-2H-thiopyran-4-yl)-5-((3-(2,2,2-trifluoroethoxy)pyridin-2-yl)oxy)pyrazolo[1,5-a]pyridine-2-carboxamide]
The IC50 of the first is 160-fold higher: 1560 nM for the first, 9.7 nM for the second. The second is the more potent here.

Compared with `CC(O)c1c(C(=O)NC2(C)CCS(=O)(=O)CC2)nn2ccc(Oc3ncccc3OCC(F)(F)F)cc12` (single isomer, unassigned) [Example 52a, 3-(1-Hydroxyethyl)-N-(4-methyl-1,1-dioxidotetrahydro-2H-thiopyran-4-yl)-5-((3-(2,2,2-trifluoroethoxy)pyridin-2-yl)oxy)pyrazolo[1,5-a]pyridine-2-carboxamide], `CC1(NC(=O)c2cc3cc(Oc4nccnc4OCC(F)F)ccn3n2)CCS(=O)(=O)CC1` [Example 9, 5-((3-(2,2-Difluoroethoxy)pyrazin-2-yl)oxy)-N-(4-methyl-1,1-dioxidotetrahydro-2H-thiopyran-4-yl)pyrazolo[1,5-a]pyridine-2-carboxamide] is 690-fold lower in IC50: 1590 nM for the first, 2.3 nM for the second. The second is the more potent here.

First: CC(O)c1c(C(=O)NC2(C)CCS(=O)(=O)CC2)nn2ccc(Oc3ncccc3OCC(F)(F)F)cc12 (single isomer, unassigned) [Example 52b, 3-(1-Hydroxyethyl)-N-(4-methyl-1,1-dioxidotetrahydro-2H-thiopyran-4-yl)-5-((3-(2,2,2-trifluoroethoxy)pyridin-2-yl)oxy)pyrazolo[1,5-a]pyridine-2-carboxamide]
Second: O=C(NC1CCCC1)c1cc2cc(Oc3ncccc3OCC(F)(F)F)ccn2n1 [Example 7, N-Cyclopentyl-5-((3-(2,2,2-trifluoroethoxy)pyridin-2-yl)oxy)pyrazolo[1,5-a]pyridine-2-carboxamide]
The IC50 of the first is 3.2-fold lower: 333 nM for the first, 1070 nM for the second. The first is the more potent here.

Compared with `CC(C)(CNS(C)(=O)=O)NC(=O)c1cc2cc(Oc3ncccc3OCC(F)(F)F)ccn2n1` [Example 3, N-(2-Methyl-1-(methylsulfonamido)propan-2-yl)-5-((3-(2,2,2-trifluoroethoxy)pyridin-2-yl)oxy)pyrazolo[1,5-a]pyridine-2-carboxamide], `O=C(N[C@H]1CCOC1)c1cc2cc(Oc3ncccc3OCC(F)(F)F)ccn2n1` [Example 6, (S)-N-(Tetrahydrofuran-3-yl)-5-((3-(2,2,2-trifluoroethoxy)pyridin-2-yl)oxy)pyrazolo[1,5-a]pyridine-2-carboxamide] is higher in IC50: 694 nM for the first, over 9990 nM for the second.

First: O=C(NC1CCCN(CC(F)(F)F)C1=O)c1cc2cc(Oc3ncccc3OCC(F)(F)F)ccn2n1 (centres unmarked) [Example 4, N-(2-Oxo-1-(2,2,2-trifluoroethyl)piperidin-3-yl)-5-((3-(2,2,2-trifluoroethoxy)pyridin-2-yl)oxy)pyrazolo[1,5-a]pyridine-2-carboxamide]
Second: CC1(NC(=O)c2cc3cc(Oc4ncc(F)cc4OC4CC4)ccn3n2)CS(=O)(=O)C1 [Example 12, 5-((3-Cyclopropoxy-5-fluoropyridin-2-yl)oxy)-N-(3-methyl-1,1-dioxidothietan-3-yl)pyrazolo[1,5-a]pyridine-2-carboxamide]
The IC50 of the first is 5.8-fold lower: 309 nM for the first, 1800 nM for the second. The first is the more potent here.

Compared with `C[C@@]1(NC(=O)c2cc3cc(Oc4nccnc4OCC(F)F)ccn3n2)CCS(=O)(=O)C1` [Example 8, (R)-5-((3-(2,2-Difluoroethoxy)pyrazin-2-yl)oxy)-N-(3-methyl-1,1-dioxidotetrahydrothiophen-3-yl)pyrazolo[1,5-a]pyridine-2-carboxamide], `CC1(NC(=O)c2cc3cc(Oc4ncc(F)cc4OC4CC4)ccn3n2)CCS(=O)(=O)CC1` [Example 10, 5-((3-Cyclopropoxy-5-fluoropyridin-2-yl)oxy)-N-(4-methyl-1,1-dioxidotetrahydro-2H-thiopyran-4-yl)pyrazolo[1,5-a]pyridine-2-carboxamide] is 2.5-fold lower in IC50: 211 nM for the first, 85 nM for the second. The second is the more potent here.
